Broadly, the IC50 is the concentration that inhibits the measured activity by half. High values mean weaker potency in that assay, low ones greater potency in that assay.

A value given as a limit tells only on which side of the number the result lay.

Sequence of human KHK-C (P50053 whole entry, the tested form may be a part): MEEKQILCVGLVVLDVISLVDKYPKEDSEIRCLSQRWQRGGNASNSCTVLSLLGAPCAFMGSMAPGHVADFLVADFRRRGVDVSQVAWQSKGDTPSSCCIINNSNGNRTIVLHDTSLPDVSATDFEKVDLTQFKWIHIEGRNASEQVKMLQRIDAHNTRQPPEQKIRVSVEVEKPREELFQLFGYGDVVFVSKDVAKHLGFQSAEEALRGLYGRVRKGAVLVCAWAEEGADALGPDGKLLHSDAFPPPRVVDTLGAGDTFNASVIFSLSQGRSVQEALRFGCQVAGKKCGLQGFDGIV

For the first test, the target named is human KHK-C (Homo sapiens (Human), UniProt P50053). Kind of test: KHK Biochemical Assay (IC50), ADP-Glo, KHK-C. The note with it: ADP-Glo; average of at least two separate assays. Here is the method:
The His-tagged fusion protein was expressed using BL21 (DE3) with IPTG induction and purified using Ni-NTA column followed by dialysis into final buffer containing 25 mM Tris-HCl pH 8.0, 250 mM NaCl.
KHK Biochemical Assay (IC50)
Compounds were tested for KHK enzyme inhibition in a high-throughput 384-well assay format using the ADP-Glo assay (Promega) in buffer consisting of 50 mM Hepes (pH 7.4), 140 mM KCl, 5 mM MgCl2 and 0.01% Triton-X. 0.2 nM. […] Compounds were serially diluted (1:3) in DMSO.
The compounds were pre-incubated with 5 μL of 2× final enzyme concentration for 30 minutes before adding 5 μL of 2× final concentration of ATP and fructose. The plates were incubated at room temperature for 4 hours before adding ADP-Glo reagent to quench the enzyme reaction, followed by incubation at room temperature for 1 hour. The ADP-Glo detection reagent was then added to the plates and luminescence was measured on the Envision plate reader after 1 hour.
`C[C@H]1CCN1c1nc2c(c(-c3ccc4c(cnn4C(=O)CN)c3)n1)CCC2` [Example 237, (S)-2-amino-1-(5-(2-(2-methylazetidin-1-yl)-6,7-dihydro-5H-cyclopenta[d]pyrimidin-4-yl)-1H-indazol-1-yl)ethan-1-one] came in with a concentration for half-maximal inhibition (IC50) of 26.7 nM. The same measure, in the same setting: under `C[C@H]1CCN1c1nc2c(c(-c3ccc4nn(C(=O)CN)cc4c3)n1)CCC2` [Example 238, (S)-2-amino-1-(5-(2-(2-methylazetidin-1-yl)-6,7-dihydro-5H-cyclopenta[d]pyrimidin-4-yl)-2H-indazol-2-yl)ethan-1-one] stands 68.3 nM; under `C[C@H]1[C@H](O)CN1c1nc(-c2ccc3c(c2)CC(C)(C)C3NS(C)(=O)=O)c2c(n1)C(F)(F)CC2` (stereo partly drawn) [Example 816, N-[5-[7,7-difluoro-2-[(2S,3R)-3-hydroxy-2-methyl-azetidin-1-yl]-5,6-dihydrocyclopenta[d]pyrimidin-4-yl]-2,2-dimethyl-indan-1-yl]methanesulfonamide], 23.4 nM.

The compound `C[C@H]1[C@H](O)CN1c1nc(-c2ccc3c(c2)S(=N)(=O)CCO3)c2c(n1)C(F)(F)CC2` (stereo partly drawn) [Example 818, (2S,3R)-1-[7,7-difluoro-4-(4-imino-4-oxo-2,3-dihydro-1,4λ^6-benzoxathiin-6-yl)-5,6-dihydrocyclopenta[d]pyrimidin-2-yl]-2-methyl-azetidin-3-ol] gave an IC50 of 2.5 nM.

Still in this test, the particulars now being: average of at least two separate assays.
With “5-(7,7-difluoro-2-((2S,3R)-3-hydroxy-2-methylazetidin-1-yl)-6,7-dihydro-5H-cyclopenta[d]pyrimidin-4-yl)-2,3-dihydrospiro[indene-1,3′-[1,4]oxazepan]-5′-one [Example 552]”, the IC50 turned out to be 39.2 nM.

`C[C@H]1[C@H](O)CN1c1nc(-c2ccc(OC(F)F)c([S@](C)(=N)=O)c2)c2c(n1)C(F)(F)CC2` (single isomer, unassigned) [Example 534] returned an IC50 of 32 nM. Still for that read-out and setting: for `COc1c(F)cc(-c2nc(N3C[C@@H](O)[C@@H]3C)nc3c2CCC3(F)F)cc1[S@@](C)(=N)=O` (single isomer, unassigned) [Example 536] the value was 6.1 nM; for `COc1c(F)cc(-c2nc(N3C[C@@H](O)[C@@H]3C)nc3c2CCC3(F)F)cc1[S@](C)(=N)=O` (single isomer, unassigned) [Example 537], 21.4 nM; for `COc1ccc(-c2nc(N3C[C@@H](O)[C@@H]3C)nc3c2CCC3(F)F)cc1[S@](=N)(=O)C1CC1` (single isomer, unassigned) [Example 540], 13.5 nM. Still for that read-out and setting: for `CS(=O)(=O)N[C@H]1COc2cc(-c3nc(N4CC[C@H]4C(F)F)nc4c3CCC4(F)F)ccc21` (single isomer, unassigned) [Example 546] the value was 23.9 nM; for `C[C@H]1[C@H](O)CN1c1nc(-c2ccc3c(c2)CC[C@]32COCC(=O)N2)c2c(n1)C(F)(F)CC2` (single isomer, unassigned) [Example 550], 5 nM; for `C[C@H]1[C@H](O)CN1c1nc(-c2ccc3c(c2)C(F)(F)C[C@H]3NS(C)(=O)=O)c2c(n1)C(F)(F)CC2` (single isomer, unassigned) [Example 635], 2.9 nM. Same read-out and setting: under `C[C@H]1[C@H](F)CN1c1nc(-c2ccc3c(c2)S(=O)(=O)C[C@H]3NS(C)(=O)=O)c2c(n1)C(F)(F)CC2` (single isomer, unassigned) [Example 680] stands 1.4 nM; under `C[C@@H]1N(c2nc(-c3ccc4c(c3)S(=O)(=O)C[C@@H]4NS(C)(=O)=O)c3c(n2)C(F)(F)CC3)CC1(F)F` (single isomer, unassigned) [Example 681], 0.5 nM. The compound `C[C@@H]1N(c2nc(-c3ccc4c(c3)S(=O)(=O)C[C@H]4NS(C)(=O)=O)c3c(n2)C(F)(F)CC3)CC1(F)F` (single isomer, unassigned) [Example 682] registered an IC50 of 4 nM. The same measure, in the same setting: for `C[C@H]1CCN1c1nc(-c2ccc([C@H](N)CS(C)(=O)=O)cc2)c2c(n1)C(F)(F)CC2` (single isomer, unassigned) [Example 775] the value was 4.3 nM; for `C[C@H]1CCN1c1nc(-c2ccc([C@@H](N)CS(C)(=O)=O)cc2)c2c(n1)C(F)(F)CC2` (single isomer, unassigned) [Example 776], 2.8 nM; for `NC(=O)c1ccc(-c2nc(N3CC4(CCC4)C3)nc3c2CCC3)cc1` [Example 416, 4-(2-(2-azaspiro[3.3]heptan-2-yl)-6,7-dihydro-5H-cyclopenta[d]pyrimidin-4-yl)benzamide], greater than 5000 nM. `NC(=O)c1ccc(-c2nc(N3CC4(COC4)C3)nc3c2CCC3)cc1` [Example 417, 4-(2-(2-oxa-6-azaspiro[3.3]heptan-6-yl)-6,7-dihydro-5H-cyclopenta[d]pyrimidin-4-yl)benzamide] yielded an IC50 greater than 5000 nM. `C[C@H]1CCC(=O)N1c1nc2c(c(-c3ccc(C(N)=O)cc3)n1)CCC2` [Example 419, (S)-4-(2-(2-methyl-5-oxopyrrolidin-1-yl)-6,7-dihydro-5H-cyclopenta[d]pyrimidin-4-yl)benzamide] registered an IC50 greater than 5000 nM.

The compound `C[C@H]1[C@H](O)CN1c1nc2c(c(-c3ccc4cnc(N)cc4c3)n1)CCC2` [Example 448, (2S,3R)-1-[4-(3-amino-6-isoquinolyl)-6,7-dihydro-5H-cyclopenta[d]pyrimidin-2-yl]-2-methyl-azetidin-3-ol] came in with an IC50 of 121 nM. Still for that read-out and setting: under `N#CC1CCN1c1nc2c(c(-c3ccc(C(N)=O)cc3)n1)CCC2` (stereo not drawn) [Example 458, 4-(2-(2-cyanoazetidin-1-yl)-6,7-dihydro-5H-cyclopenta[d]pyrimidin-4-yl)benzamide] stands 57.2 nM; under `CS(=O)(=O)N[C@H]1COc2cc(-c3nc(N4C[C@@H](O)[C@@H]4CF)nc4c3CCC4(F)F)ccc21` [Example 484, N-((R)-6-(7,7-difluoro-2-((2R,3R)-2-(fluoromethyl)-3-hydroxyazetidin-1-yl)-6,7-dihydro-5H-cyclopenta[d]pyrimidin-4-yl)-2,3-dihydrobenzofuran-3-yl)methanesulfonamide], 1.2 nM. Same read-out and setting: under `C[C@H]1[C@H](O)CN1c1nc(-c2ccc3c(c2)CC[C@@]32NC(=O)NC2=O)c2c(n1)C(F)(F)CC2` [Example 485, (R)-5′-(7,7-difluoro-2-((2S,3R)-3-hydroxy-2-methylazetidin-1-yl)-6,7-dihydro-5H-cyclopenta[d]pyrimidin-4-yl)-2′,3′-dihydrospiro[imidazolidine-4,1′-indene]-2,5-dione] stands 22.6 nM; under `COc1c(F)cc(-c2nc(N3C[C@@H](O)[C@@H]3C)nc3c2CCC3(F)F)cc1S(C)(=N)=O` (stereo partly drawn) [Example 535, (5-(7,7-difluoro-2-((2S,3R)-3-hydroxy-2-methylazetidin-1-yl)-6,7-dihydro-5H-cyclopenta[d]pyrimidin-4-yl)-3-fluoro-2-methoxyphenyl)(imino)(methyl)-λ^6-sulfanone], 15.8 nM. Same read-out and setting: under `COc1ccc(-c2nc(N3C[C@@H](O)[C@@H]3C)nc3c2CCC3(F)F)cc1S(=N)(=O)C1CC1` (stereo partly drawn) [Example 538, cyclopropyl(5-(7,7-difluoro-2-((2S,3R)-3-hydroxy-2-methylazetidin-1-yl)-6,7-dihydro-5H-cyclopenta[d]pyrimidin-4-yl)-2-methoxyphenyl)(imino)-λ^6-sulfanone] stands 2.3 nM.

`CS(=O)(=O)N[C@H]1COc2cc(-c3nc(N4CCC4C(F)F)nc4c3CCC4(F)F)ccc21` (stereo partly drawn) [Example 544, N-((3R)-6-(2-(2-(difluoromethyl)azetidin-1-yl)-7,7-difluoro-6,7-dihydro-5H-cyclopenta[d]pyrimidin-4-yl)-2,3-dihydrobenzofuran-3-yl)methanesulfonamide] gave an IC50 of 1.1 nM. As to `C[C@H]1CCN1c1nc(-c2ccc3c(c2)C(NS(C)(=O)=O)CC3)c2c(n1)C(F)(F)CC2` (stereo partly drawn) [Example 607], the IC50 was determined as 0.9 nM. For the compound `C[C@H]1[C@H](O)CN1c1nc(-c2ccc3c(c2)C(F)(F)CC3NS(C)(=O)=O)c2c(n1)C(F)(F)CC2` (stereo partly drawn) [Example 633, N-(5-(7,7-difluoro-2-((2S,3R)-3-hydroxy-2-methylazetidin-1-yl)-6,7-dihydro-5H-cyclopenta[d]pyrimidin-4-yl)-3,3-difluoro-2,3-dihydro-1H-inden-1-yl)methanesulfonamide], the IC50 was 2 nM.

Compound `NC1(c2ccc(-c3nc(N4C[C@@H](O)[C@@H]4CF)nc4c3CCC4(F)F)cc2)COC1` [Example 677, (2R,3R)-1-[4-[4-(3-aminooxetan-3-yl)phenyl]-7,7-difluoro-5,6-dihydroeyelopenta[d]pyrimidin-2-yl]-2-(fluoromethyl)azetidin-3-ol] gave an IC50 of 4.8 nM. The compound `C[C@H]1CCN1c1nc(-c2cccc(NS(C)(=N)=O)c2)c2c(n1)C(F)(F)CC2` (stereo partly drawn) [Example 684, 4-[3-[(amino-methyl-oxo-λ^6-sulfanylidene)amino]phenyl]-7,7-difluoro-2-[(2S)-2-methylazetidin-1-yl]-5,6-dihydrocyclopenta[d]pyrimidine] registered an IC50 of 3.8 nM. On the same count and under the same terms, under `C[C@H]1[C@H](O)CN1c1nc(-c2cc3c(c(S(C)(=N)=O)c2)OCC3)c2c(n1)C(F)(F)CC2` (stereo partly drawn) [Example 716, (5-(7,7-difluoro-2-((2S,3R)-3-hydroxy-2-methylazetidin-1-yl)-6,7-dihydro-5H-cyclopenta[d]pyrimidin-4-yl)-2,3-dihydrobenzofuran-7-yl)(imino)(methyl)-λ^6-sulfanone] stands 3.8 nM.

As for `C[C@H]1CCN1c1nc2c(c(-c3ccc(Cl)c(S(C)(=N)=O)c3)n1)CCC2` (stereo partly drawn) [Example 727], the IC50 was greater than 500 nM.
